Where two headings read alike, the source gives them in different places.
Test system: N. gonorrhoeae
Assay: MIC determination, agar dilution (CLSI)
Format: cell-based, Neisseria gonorrhoeae
Conditions: Neisseria gonorrhoeae
Summary of the method: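 For N. gonorrhoeae, WHO 2024 reference strains served as quality control, only whole doubling-dilution MICs were reported, and isolates were classified by EUCAST v14.0 breakpoints or ECOFF. Time-kill assays followed CLSI in Columbia broth with 1% IsoVitaleX, and viable counts came from plating serial dilutions on GC agar with IsoVitaleX.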

Measured: MIC

Cc1c(CN(C)C(=O)/C=C/c2cnc3c(c2)N[C@H](C)[C@H](O)C(=O)N3)oc2ccccc12 [Debio 1453]
0.125 µg/mL: WHO P, agar dilution, read-out: MIC | WHO U, agar dilution, read-out: MIC | WHO X-07 (CIP-R, CRO-R), mode of multiple measures, read-out: MIC | clinical N. gonorrhoeae isolate 22, Sweden 2023, read-out: Minimum inhibitory concentration | clinical N. gonorrhoeae isolate 24, Sweden 2023, read-out: Minimum inhibitory concentration | clinical N. gonorrhoeae isolate 30, Sweden 2023, read-out: Minimum inhibitory concentration
0.064 µg/mL: clinical N. gonorrhoeae isolate 1, Sweden 2023, read-out: Minimum inhibitory concentration | clinical N. gonorrhoeae isolate 3, Sweden 2023, read-out: Minimum inhibitory concentration | clinical N. gonorrhoeae isolate 5, Sweden 2023, read-out: Minimum inhibitory concentration | clinical N. gonorrhoeae isolate 7, Sweden 2023, read-out: Minimum inhibitory concentration | clinical N. gonorrhoeae isolate 8, Sweden 2023, read-out: Minimum inhibitory concentration | clinical N. gonorrhoeae isolate 9, Sweden 2023, read-out: Minimum inhibitory concentration | clinical N. gonorrhoeae isolate 10, Sweden 2023, read-out: Minimum inhibitory concentration | clinical N. gonorrhoeae isolate 11, Sweden 2023, read-out: Minimum inhibitory concentration | clinical N. gonorrhoeae isolate 13, Sweden 2023, read-out: Minimum inhibitory concentration | clinical N. gonorrhoeae isolate 15, Sweden 2023, read-out: Minimum inhibitory concentration | clinical N. gonorrhoeae isolate 16, Sweden 2023, read-out: Minimum inhibitory concentration | clinical N. gonorrhoeae isolate 17, Sweden 2023, read-out: Minimum inhibitory concentration | clinical N. gonorrhoeae isolate 18, Sweden 2023, read-out: Minimum inhibitory concentration | clinical N. gonorrhoeae isolate 19, Sweden 2023, read-out: Minimum inhibitory concentration | clinical N. gonorrhoeae isolate 20, Sweden 2023, read-out: Minimum inhibitory concentration | clinical N. gonorrhoeae isolate 21, Sweden 2023, read-out: Minimum inhibitory concentration | clinical N. gonorrhoeae isolate 23, Sweden 2023, read-out: Minimum inhibitory concentration | clinical N. gonorrhoeae isolate 25, Sweden 2023, read-out: Minimum inhibitory concentration | clinical N. gonorrhoeae isolate 27, Sweden 2023, read-out: Minimum inhibitory concentration | clinical N. gonorrhoeae isolate 28, Sweden 2023, read-out: Minimum inhibitory concentration | clinical N. gonorrhoeae isolate 29, Sweden 2023, read-out: Minimum inhibitory concentration | clinical N. gonorrhoeae isolate 31, Sweden 2023, read-out: Minimum inhibitory concentration
0.06 µg/mL: WHO M, agar dilution, read-out: MIC | WHO O, agar dilution, read-out: MIC | WHO Q, agar dilution, read-out: MIC | WHO R, agar dilution, read-out: MIC | WHO S2, agar dilution, read-out: MIC | WHO V, agar dilution, read-out: MIC | WHO X, agar dilution, read-out: MIC | WHO Y, agar dilution, read-out: MIC | WHO Z, agar dilution, read-out: MIC
0.03 µg/mL: WHO L, agar dilution, read-out: MIC
0.032 µg/mL: clinical N. gonorrhoeae isolate 2, Sweden 2023, read-out: Minimum inhibitory concentration | clinical N. gonorrhoeae isolate 4, Sweden 2023, read-out: Minimum inhibitory concentration | clinical N. gonorrhoeae isolate 6, Sweden 2023, read-out: Minimum inhibitory concentration | clinical N. gonorrhoeae isolate 12, Sweden 2023, read-out: Minimum inhibitory concentration | clinical N. gonorrhoeae isolate 14, Sweden 2023, read-out: Minimum inhibitory concentration | clinical N. gonorrhoeae isolate 26, Sweden 2023, read-out: Minimum inhibitory concentration

From article PMC12446476 (Nature Communications, 2025)
